According to paper PMC9569420 (Communications Biology, 2022):

Key:
GRK2 = molecular target: T1, GRK2 (Homo sapiens, UniProt P25098); assay: biochemical; settings: read-out: % Enzyme Activity (relative to DMSO controls)
T1 construct: purchased Reaction Biology Corporation

[1] = test system: Akt (pAkt T308) in HaCat cells; assay: Akt phosphorylation in response to insulin (confocal); assay type: cell-based, human; settings: insulin 10 μM, CIMSS 10 or 100 µM
CDK7/cyclin H = molecular target: T2, CDK7/cyclin H (Homo sapiens, UniProt P50613); assay: HotSpot kinase assay; assay type: biochemical; settings: read-out: % Enzyme Activity (relative to DMSO controls)
T2 construct: purchased Reaction Biology Corporation

ROCK2 = molecular target: T3, ROCK2 (Homo sapiens, UniProt O75116); assay: HotSpot kinase assay; assay type: biochemical; settings: read-out: % Enzyme Activity (relative to DMSO controls)
T3 construct: purchased Reaction Biology Corporation

MNK2 = molecular target: T4, MNK2 (Homo sapiens, UniProt Q9HBH9); assay: HotSpot kinase assay; assay type: biochemical; settings: read-out: % Enzyme Activity (relative to DMSO controls)
T4 construct: purchased Reaction Biology Corporation

CDK6/cyclin D3 = molecular target: T5, CDK6/cyclin D3 (Homo sapiens, UniProt Q00534); assay: HotSpot kinase assay; assay type: biochemical; settings: read-out: % Enzyme Activity (relative to DMSO controls)
T5 construct: purchased Reaction Biology Corporation

MEK1 = molecular target: T6, MEK1 (Homo sapiens, UniProt Q02750); assay: HotSpot kinase assay; assay type: biochemical; settings: read-out: % Enzyme Activity (relative to DMSO controls)
T6 construct: purchased Reaction Biology Corporation

BMX/ETK = molecular target: T7, BMX/ETK (Homo sapiens, UniProt P51813); assay: HotSpot kinase assay; assay type: biochemical; settings: read-out: % Enzyme Activity (relative to DMSO controls)
T7 construct: purchased Reaction Biology Corporation

Haspin = molecular target: T8, Haspin (Homo sapiens, UniProt Q8TF76); assay: HotSpot kinase assay; assay type: biochemical; settings: read-out: % Enzyme Activity (relative to DMSO controls)
T8 construct: purchased Reaction Biology Corporation

NEK1 = molecular target: T9, NEK1 (Homo sapiens, UniProt Q96PY6); assay: HotSpot kinase assay; assay type: biochemical; settings: read-out: % Enzyme Activity (relative to DMSO controls)
T9 construct: purchased Reaction Biology Corporation

PYK2 = molecular target: T10, PYK2 (Homo sapiens, UniProt Q14289); assay: HotSpot kinase assay; assay type: biochemical; settings: read-out: % Enzyme Activity (relative to DMSO controls)
T10 construct: purchased Reaction Biology Corporation

MAST3 = molecular target: T11, MAST3 (Homo sapiens, UniProt O60307); assay: HotSpot kinase assay; assay type: biochemical; settings: read-out: % Enzyme Activity (relative to DMSO controls)
T11 construct: purchased Reaction Biology Corporation

MEKK6 = molecular target: T12, MEKK6 (Homo sapiens, UniProt O95382); assay: HotSpot kinase assay; assay type: biochemical; settings: read-out: % Enzyme Activity (relative to DMSO controls)
T12 construct: purchased Reaction Biology Corporation

MRCKb/CDC42BPB = molecular target: T13, MRCKb/CDC42BPB (Homo sapiens, UniProt Q9Y5S2); assay: HotSpot kinase assay; assay type: biochemical; settings: read-out: % Enzyme Activity (relative to DMSO controls)
T13 construct: purchased Reaction Biology Corporation

ERN2/IRE2 = molecular target: T14, ERN2/IRE2 (Homo sapiens, UniProt Q76MJ5); assay: HotSpot kinase assay; assay type: biochemical; settings: read-out: % Enzyme Activity (relative to DMSO controls)
T14 construct: purchased Reaction Biology Corporation

CHK1 = molecular target: T15, CHK1 (Homo sapiens, UniProt O14757); assay: HotSpot kinase assay; assay type: biochemical; settings: read-out: % Enzyme Activity (relative to DMSO controls)
T15 construct: purchased Reaction Biology Corporation

RAF1 = molecular target: T16, RAF1 (Homo sapiens, UniProt P04049); assay: HotSpot kinase assay; assay type: biochemical; settings: read-out: % Enzyme Activity (relative to DMSO controls)
T16 construct: purchased Reaction Biology Corporation

DDR2 = molecular target: T17, DDR2 (Homo sapiens, UniProt Q16832); assay: HotSpot kinase assay; assay type: biochemical; settings: read-out: % Enzyme Activity (relative to DMSO controls)
T17 construct: purchased Reaction Biology Corporation

PKAcg = molecular target: T18, PKAcg (Homo sapiens, UniProt P22612); assay: HotSpot kinase assay; assay type: biochemical; settings: read-out: % Enzyme Activity (relative to DMSO controls)
T18 construct: purchased Reaction Biology Corporation

ALK6/BMPR1B = molecular target: T19, ALK6/BMPR1B (Homo sapiens, UniProt O00238); assay: HotSpot kinase assay; assay type: biochemical; settings: read-out: % Enzyme Activity (relative to DMSO controls)
T19 construct: purchased Reaction Biology Corporation

STK16 = molecular target: T20, STK16 (Homo sapiens, UniProt O75716); assay: HotSpot kinase assay; assay type: biochemical; settings: read-out: % Enzyme Activity (relative to DMSO controls)
T20 construct: purchased Reaction Biology Corporation

CDK5/P25 = molecular target: T21, CDK5/P25 (Homo sapiens, UniProt Q00535); assay: HotSpot kinase assay; assay type: biochemical; settings: read-out: % Enzyme Activity (relative to DMSO controls)
T21 construct: purchased Reaction Biology Corporation

BTK = molecular target: T22, BTK (Homo sapiens, UniProt Q06187); assay: HotSpot kinase assay; assay type: biochemical; settings: read-out: % Enzyme Activity (relative to DMSO controls)
T22 construct: purchased Reaction Biology Corporation

MST3/STK24 = molecular target: T23, MST3/STK24 (Homo sapiens, UniProt Q9Y6E0); assay: HotSpot kinase assay; assay type: biochemical; settings: read-out: % Enzyme Activity (relative to DMSO controls)
T23 construct: purchased Reaction Biology Corporation

EPHA6 = molecular target: T24, EPHA6 (Homo sapiens, UniProt Q9UF33); assay: HotSpot kinase assay; assay type: biochemical; settings: read-out: % Enzyme Activity (relative to DMSO controls)
T24 construct: purchased Reaction Biology Corporation

EPHA7 = molecular target: T25, EPHA7 (Homo sapiens, UniProt Q15375); assay: HotSpot kinase assay; assay type: biochemical; settings: read-out: % Enzyme Activity (relative to DMSO controls)
T25 construct: purchased Reaction Biology Corporation

KDR/VEGFR2 = molecular target: T26, KDR/VEGFR2 (Homo sapiens, UniProt P35968); assay: HotSpot kinase assay; assay type: biochemical; settings: read-out: % Enzyme Activity (relative to DMSO controls)
T26 construct: purchased Reaction Biology Corporation

CDK17/cyclin Y (PCTK2) = molecular target: T27, CDK17/cyclin Y (PCTK2) (Homo sapiens, UniProt Q00537); assay: HotSpot kinase assay; assay type: biochemical; settings: read-out: % Enzyme Activity (relative to DMSO controls)
T27 construct: purchased Reaction Biology Corporation

HIPK2 = molecular target: T28, HIPK2 (Homo sapiens, UniProt Q9H2X6); assay: HotSpot kinase assay; assay type: biochemical; settings: read-out: % Enzyme Activity (relative to DMSO controls)
T28 construct: purchased Reaction Biology Corporation

PKD2/PRKD2 = molecular target: T29, PKD2/PRKD2 (Homo sapiens, UniProt Q9BZL6); assay: HotSpot kinase assay; assay type: biochemical; settings: read-out: % Enzyme Activity (relative to DMSO controls)
T29 construct: purchased Reaction Biology Corporation

in vitro = settings: dog, MDCK-MDR1
MASTL = molecular target: T30, MASTL (Homo sapiens, UniProt Q96GX5); assay: HotSpot kinase assay; assay type: biochemical; settings: read-out: % Enzyme Activity (relative to DMSO controls)
T30 construct: purchased Reaction Biology Corporation

P38g = molecular target: T31, P38g (Homo sapiens, UniProt P53778); assay: HotSpot kinase assay; assay type: biochemical; settings: read-out: % Enzyme Activity (relative to DMSO controls)
T31 construct: purchased Reaction Biology Corporation

ZAP70 = molecular target: T32, ZAP70 (Homo sapiens, UniProt P43403); assay: HotSpot kinase assay; assay type: biochemical; settings: read-out: % Enzyme Activity (relative to DMSO controls)
T32 construct: purchased Reaction Biology Corporation

GSK3a = molecular target: T33, GSK3a (Homo sapiens, UniProt P49840); assay: HotSpot kinase assay; assay type: biochemical; settings: read-out: % Enzyme Activity (relative to DMSO controls)
T33 construct: purchased Reaction Biology Corporation

SARS-CoV-2 (WA1/2020) = assay: SARS-CoV-2 infection of Huh-7.5 cells (nucleocapsid staining); settings: 24 and 72 h
EPHB3 = molecular target: T34, EPHB3 (Homo sapiens, UniProt P54753); assay: HotSpot kinase assay; assay type: biochemical; settings: read-out: % Enzyme Activity (relative to DMSO controls)
T34 construct: purchased Reaction Biology Corporation

MELK = molecular target: T35, MELK (Homo sapiens, UniProt Q14680); assay: HotSpot kinase assay; assay type: biochemical; settings: read-out: % Enzyme Activity (relative to DMSO controls)
T35 construct: purchased Reaction Biology Corporation

CDK6/cyclin D1 = molecular target: T36, CDK6/cyclin D1 (Homo sapiens, UniProt Q00534); assay: HotSpot kinase assay; assay type: biochemical; settings: read-out: % Enzyme Activity (relative to DMSO controls)
T36 construct: purchased Reaction Biology Corporation

FGFR3 = molecular target: T37, FGFR3 (Homo sapiens, UniProt P22607); assay: HotSpot kinase assay; assay type: biochemical; settings: read-out: % Enzyme Activity (relative to DMSO controls)
T37 construct: purchased Reaction Biology Corporation

T18 sequence (P22612 whole entry): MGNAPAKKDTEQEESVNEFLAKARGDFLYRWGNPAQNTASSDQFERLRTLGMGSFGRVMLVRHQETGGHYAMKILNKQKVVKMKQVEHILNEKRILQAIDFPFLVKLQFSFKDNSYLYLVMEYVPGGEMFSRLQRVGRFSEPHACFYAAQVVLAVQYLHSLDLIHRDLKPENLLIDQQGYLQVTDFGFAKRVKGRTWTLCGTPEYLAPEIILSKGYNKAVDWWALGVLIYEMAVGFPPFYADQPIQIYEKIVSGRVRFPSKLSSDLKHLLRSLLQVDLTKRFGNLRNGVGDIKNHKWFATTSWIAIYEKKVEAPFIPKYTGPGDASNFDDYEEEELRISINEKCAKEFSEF
T13 sequence (Q9Y5S2 whole entry): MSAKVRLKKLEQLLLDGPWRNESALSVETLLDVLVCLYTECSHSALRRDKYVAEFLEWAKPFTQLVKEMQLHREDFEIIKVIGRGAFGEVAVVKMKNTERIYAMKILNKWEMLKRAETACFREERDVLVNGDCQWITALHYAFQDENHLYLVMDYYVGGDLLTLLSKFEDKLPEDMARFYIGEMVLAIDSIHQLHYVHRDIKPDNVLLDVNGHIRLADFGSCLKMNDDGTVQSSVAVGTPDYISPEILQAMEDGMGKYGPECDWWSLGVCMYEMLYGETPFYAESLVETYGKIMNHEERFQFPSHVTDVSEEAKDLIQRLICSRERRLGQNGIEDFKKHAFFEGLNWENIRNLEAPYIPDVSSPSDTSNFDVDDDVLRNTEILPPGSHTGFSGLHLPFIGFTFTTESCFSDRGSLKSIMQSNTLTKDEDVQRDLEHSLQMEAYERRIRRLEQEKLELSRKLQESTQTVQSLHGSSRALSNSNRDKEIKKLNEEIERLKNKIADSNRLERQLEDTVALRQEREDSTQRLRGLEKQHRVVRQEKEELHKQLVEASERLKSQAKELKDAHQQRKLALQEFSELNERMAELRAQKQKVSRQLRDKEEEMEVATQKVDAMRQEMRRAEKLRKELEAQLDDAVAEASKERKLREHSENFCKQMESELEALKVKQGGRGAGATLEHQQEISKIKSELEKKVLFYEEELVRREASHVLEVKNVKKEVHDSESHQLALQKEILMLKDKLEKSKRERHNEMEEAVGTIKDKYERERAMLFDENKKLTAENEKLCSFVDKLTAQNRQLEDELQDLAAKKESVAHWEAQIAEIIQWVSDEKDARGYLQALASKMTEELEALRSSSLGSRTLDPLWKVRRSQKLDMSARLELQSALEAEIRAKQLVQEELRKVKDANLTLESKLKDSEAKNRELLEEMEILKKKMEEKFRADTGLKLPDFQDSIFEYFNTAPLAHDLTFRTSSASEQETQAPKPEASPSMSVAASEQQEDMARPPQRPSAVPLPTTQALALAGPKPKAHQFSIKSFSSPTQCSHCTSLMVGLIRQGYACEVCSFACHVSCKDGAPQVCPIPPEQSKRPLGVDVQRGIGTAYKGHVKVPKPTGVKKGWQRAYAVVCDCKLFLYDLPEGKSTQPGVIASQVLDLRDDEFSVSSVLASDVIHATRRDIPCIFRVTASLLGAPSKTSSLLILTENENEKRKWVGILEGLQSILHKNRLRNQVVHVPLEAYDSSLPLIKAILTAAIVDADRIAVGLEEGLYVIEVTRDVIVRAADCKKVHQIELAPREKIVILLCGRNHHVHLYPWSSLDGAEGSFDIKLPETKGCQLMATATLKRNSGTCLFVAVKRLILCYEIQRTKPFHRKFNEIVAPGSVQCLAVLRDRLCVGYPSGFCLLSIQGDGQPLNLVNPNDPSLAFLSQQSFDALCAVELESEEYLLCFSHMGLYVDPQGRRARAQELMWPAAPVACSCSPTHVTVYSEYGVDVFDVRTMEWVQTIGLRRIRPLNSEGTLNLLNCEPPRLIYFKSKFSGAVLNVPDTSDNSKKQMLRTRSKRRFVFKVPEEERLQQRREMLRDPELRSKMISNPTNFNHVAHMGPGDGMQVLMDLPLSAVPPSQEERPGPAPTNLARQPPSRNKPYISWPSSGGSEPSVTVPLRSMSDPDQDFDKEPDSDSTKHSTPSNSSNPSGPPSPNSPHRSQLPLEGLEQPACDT
T29 sequence (Q9BZL6 whole entry): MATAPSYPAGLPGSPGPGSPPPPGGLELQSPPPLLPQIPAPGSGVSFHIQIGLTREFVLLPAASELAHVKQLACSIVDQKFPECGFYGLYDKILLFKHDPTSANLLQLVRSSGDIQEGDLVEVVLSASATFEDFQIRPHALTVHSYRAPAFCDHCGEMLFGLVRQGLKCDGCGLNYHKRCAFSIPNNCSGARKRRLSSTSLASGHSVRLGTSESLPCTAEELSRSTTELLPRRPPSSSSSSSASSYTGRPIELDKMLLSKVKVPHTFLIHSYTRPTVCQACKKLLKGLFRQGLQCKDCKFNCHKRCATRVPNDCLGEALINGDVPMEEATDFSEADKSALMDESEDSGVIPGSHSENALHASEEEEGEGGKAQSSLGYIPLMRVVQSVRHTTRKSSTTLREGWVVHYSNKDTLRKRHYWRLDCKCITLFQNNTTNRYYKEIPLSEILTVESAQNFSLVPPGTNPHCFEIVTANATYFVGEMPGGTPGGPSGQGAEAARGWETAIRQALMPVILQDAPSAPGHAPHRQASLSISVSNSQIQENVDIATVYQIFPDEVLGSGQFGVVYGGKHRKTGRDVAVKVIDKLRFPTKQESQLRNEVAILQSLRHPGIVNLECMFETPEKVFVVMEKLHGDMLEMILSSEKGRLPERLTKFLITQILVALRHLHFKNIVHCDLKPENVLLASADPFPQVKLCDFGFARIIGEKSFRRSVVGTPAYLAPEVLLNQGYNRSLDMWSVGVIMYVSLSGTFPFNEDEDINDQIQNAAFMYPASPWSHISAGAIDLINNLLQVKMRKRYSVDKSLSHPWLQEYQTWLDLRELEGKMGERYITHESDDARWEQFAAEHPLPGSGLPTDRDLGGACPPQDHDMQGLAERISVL
T33 sequence (P49840 whole entry): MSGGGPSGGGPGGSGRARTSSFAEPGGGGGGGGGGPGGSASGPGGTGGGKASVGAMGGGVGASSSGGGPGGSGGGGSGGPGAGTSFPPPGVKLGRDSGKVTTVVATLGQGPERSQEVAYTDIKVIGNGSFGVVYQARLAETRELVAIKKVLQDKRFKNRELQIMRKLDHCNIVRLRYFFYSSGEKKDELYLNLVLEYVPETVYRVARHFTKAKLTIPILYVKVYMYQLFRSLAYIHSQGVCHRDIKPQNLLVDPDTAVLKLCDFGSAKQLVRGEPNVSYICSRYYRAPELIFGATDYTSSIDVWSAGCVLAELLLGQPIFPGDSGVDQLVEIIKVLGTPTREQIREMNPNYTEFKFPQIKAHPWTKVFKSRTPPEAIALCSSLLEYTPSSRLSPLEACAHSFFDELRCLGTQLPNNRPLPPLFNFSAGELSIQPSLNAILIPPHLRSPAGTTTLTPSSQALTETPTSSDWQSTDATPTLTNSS
T36 sequence (Q00534 whole entry): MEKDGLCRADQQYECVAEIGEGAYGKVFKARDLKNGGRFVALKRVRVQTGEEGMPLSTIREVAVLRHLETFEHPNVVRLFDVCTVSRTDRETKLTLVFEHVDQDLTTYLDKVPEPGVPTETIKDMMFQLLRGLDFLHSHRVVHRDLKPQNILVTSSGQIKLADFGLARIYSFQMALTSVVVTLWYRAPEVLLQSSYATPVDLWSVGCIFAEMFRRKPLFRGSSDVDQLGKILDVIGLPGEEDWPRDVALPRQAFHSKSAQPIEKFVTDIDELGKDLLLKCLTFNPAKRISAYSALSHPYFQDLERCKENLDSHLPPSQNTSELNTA
T36 sequence (P24385 whole entry partner): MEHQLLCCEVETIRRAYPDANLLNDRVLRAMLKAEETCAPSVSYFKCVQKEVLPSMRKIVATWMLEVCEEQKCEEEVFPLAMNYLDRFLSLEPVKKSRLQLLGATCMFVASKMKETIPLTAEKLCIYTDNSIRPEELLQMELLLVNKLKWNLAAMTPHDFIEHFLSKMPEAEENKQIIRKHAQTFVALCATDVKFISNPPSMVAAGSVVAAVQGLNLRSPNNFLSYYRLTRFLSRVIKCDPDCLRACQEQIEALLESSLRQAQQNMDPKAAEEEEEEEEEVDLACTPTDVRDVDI
T5 sequence (Q00534 whole entry): as the sequence (Q00534 whole entry) above
T5 sequence (P30281 whole entry partner): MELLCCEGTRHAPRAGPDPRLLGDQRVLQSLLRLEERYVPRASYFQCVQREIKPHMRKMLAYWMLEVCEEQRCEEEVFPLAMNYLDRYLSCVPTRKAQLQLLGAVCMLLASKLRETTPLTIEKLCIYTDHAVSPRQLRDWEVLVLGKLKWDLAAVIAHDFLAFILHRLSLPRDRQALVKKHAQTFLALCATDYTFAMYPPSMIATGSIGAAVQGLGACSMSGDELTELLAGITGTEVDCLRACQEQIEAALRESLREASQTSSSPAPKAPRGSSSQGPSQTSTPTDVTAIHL
T31 sequence (P53778 whole entry): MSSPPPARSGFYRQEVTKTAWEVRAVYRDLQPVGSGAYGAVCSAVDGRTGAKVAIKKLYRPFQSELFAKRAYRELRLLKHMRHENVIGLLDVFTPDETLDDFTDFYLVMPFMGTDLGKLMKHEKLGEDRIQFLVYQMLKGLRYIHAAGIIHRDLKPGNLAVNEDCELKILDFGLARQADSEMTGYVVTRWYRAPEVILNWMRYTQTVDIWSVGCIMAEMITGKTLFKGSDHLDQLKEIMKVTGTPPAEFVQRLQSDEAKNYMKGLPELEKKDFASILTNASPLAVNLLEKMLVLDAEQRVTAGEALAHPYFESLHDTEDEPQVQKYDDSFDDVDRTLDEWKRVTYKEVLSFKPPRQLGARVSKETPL

## CO[C@@H]1[C@H](N(C)C(=O)CCC(=O)NCc2cn(CCCS(=O)(=O)O)nn2)C[C@H]2O[C@]1(C)n1c3ccccc3c3c4c(c5c6ccccc6n2c5c31)C(=O)NC4 [CIMSS]
GRK2
  remaining activity at 10 µM: 29.5%
[1]
  block of Akt phosphorylation in response to insulin: did not block
CDK7/cyclin H
  remaining activity at 10 µM: 65.6%
ROCK2
  remaining activity at 10 µM: 12.7%
MNK2
  remaining activity at 10 µM: 4.79%
CDK6/cyclin D3
  remaining activity at 10 µM: 56.8%
MEK1
  remaining activity at 10 µM: 76.7%
BMX/ETK
  remaining activity at 10 µM: 2.19%
Haspin
  remaining activity at 10 µM: 49.5%
NEK1
  remaining activity at 10 µM: 5.88%
PYK2
  remaining activity at 10 µM: 2.4%
MAST3
  remaining activity at 10 µM: 106%
MEKK6
  remaining activity at 10 µM: 110%
MRCKb/CDC42BPB
  remaining activity at 10 µM: 75.8%
ERN2/IRE2
  remaining activity at 10 µM: 6.47%
CHK1
  remaining activity at 10 µM: 4.66%
RAF1
  remaining activity at 10 µM: 111%
DDR2
  remaining activity at 10 µM: 1.67%
PKAcg
  remaining activity at 10 µM: 2.07%
ALK6/BMPR1B
  remaining activity at 10 µM: 88.3%
STK16
  remaining activity at 10 µM: 10.2%
CDK5/P25
  remaining activity at 10 µM: 7.17%
BTK
  remaining activity at 10 µM: 6.64%
MST3/STK24
  remaining activity at 10 µM: 16.6%
EPHA6
  remaining activity at 10 µM: 34.6%
EPHA7
  remaining activity at 10 µM: 6.91%
KDR/VEGFR2
  remaining activity at 10 µM: 7.22%
CDK17/cyclin Y (PCTK2)
  remaining activity at 10 µM: 54.2%
HIPK2
  remaining activity at 10 µM: 17.5%
PKD2/PRKD2
  remaining activity at 10 µM: 11.9%
In vitro
  Papp at 1 h, 5 μM: 0.1 ×10⁻⁶ cm/s
MASTL
  remaining activity at 10 µM: 33.8%
P38g
  remaining activity at 10 µM: 30.3%
ZAP70
  remaining activity at 10 µM: 13%
GSK3a
  remaining activity at 10 µM: 2.72%
SARS-CoV-2 (WA1/2020)
  authentic SARS-CoV-2 (WA1/2020) infection: inhibitory activity
EPHB3
  remaining activity at 10 µM: 28.9%
MELK
  remaining activity at 10 µM: 1.43%
CDK6/cyclin D1
  remaining activity at 10 µM: 63%
FGFR3
  remaining activity at 10 µM: 4.66%
